Consider one molecule from US6518296B1, “Substituted 3-thiocarbamoylpyrazoles” (Bayer Aktiengesellschaft, priority 1998, dated 2003).

The test system of data set [1] is green peach aphid (Myzus persicae). Kind of data set: Myzus test. It is filed as in vivo. The following applies: active compound concentration of 0.1%; after 6 days; dipped cabbage leaves. On the procedure:
Solvent: 7 parts by weight of dimethylformamide
Emulsifier: 1 part by weight of alkylaryl polyglycol ether
To produce a suitable preparation of active compound, 1 part by weight of active compound is mixed with the stated amounts of solvent and emulsifier, and the concentrate is diluted with water to the desired concentration.
Cabbage leaves (Brassica oleracea) which are heavily infested by the green peach aphid (Mycus persicae) are treated by being dipped into the preparation of active compound of the desired concentration.
After the desired period of time, the kill in % is determined. 100% means that all aphids have been killed; 0% means that none of the aphids have been killed.

A further data set concerns Lucilia cuprina larvae. The data set can be described thus: Blowfly larvae test/development-inhibitory action. It is filed as in vivo. Particulars: active compound concentration of 100 ppm, read-out: activity (development-inhibitory action; 100% means that no flies have hatched). On the procedure:
Blowfly larvae test/development-inhibitory action
Test animals: Lucilia cuprina larvae
(§1) Solvent: Dimethyl sulphoxide
(§2) 20 mg of active compound are dissolved in 1 ml of dimethyl sulphoxide, while dilute concentrations are prepared by dilution with dist. H2O.
About 20 Lucilia cuprina larvae are introduced into a test tube containing about 1 cm^3 of horse meat and 0.5 ml of the preparation of active compound. After 24 and 48 hours, the activity of the preparation of active compound is determined. The test tubes are transferred into beakers whose bottom is covered with sand. After a further 2 days, the test tubes are removed and the pupae are counted.
The activity of the active compound preparation is assessed by the number of flies which have hatched after 1.5 times the development time of an untreated control. 100% means that no flies have hatched; 0% means that all flies have hatched normally.

Data set [2] concerns Boophilus microplus resistant/SP-resistant Parkhurst strain. The data set can be described thus: Test with Boophilus microplus resistant/SP-resistant Parkhurst strain (dip test, kill). It is filed as in vivo. The following applies: active compound concentration of 100 ppm; dipped for 1 minute. On the procedure:
Test with Boophilus microplus resistant/SP-resistant Parkhurst strain
(§3) Test animals: Adult females which have sucked themselves full
as §1, §2
10 adult Boophilus microplus res. are dipped for 1 minute into the preparation of active compound to be tested. The animals are transferred into plastic beakers and kept in a climatized room, and the kill rate is then determined.
100% means that all ticks have been killed; 0% means that none of the ticks have been killed.

For data set [3] the test system is unchanged. Kind of data set: Test with Boophilus microplus resistant/SP-resistant Parkhurst strain (injection, inhibition of oviposition). Type of data set: in vivo. The following applies: 20 μg/animal; injected into the abdomen; after 7 days. The method, then: Test with Boophilus microplus resistantlSP-resistant Parkhurst strain
as §3, §1
20 mg of active compound are dissolved in 1 ml of dimethyl sulphoxide, while dilute concentrations are prepared by dilution with the same solvent.
The test is carried out in 5 replications. […] of the solutions is injected into the abdomen, the animals are transferred into dishes and kept in a climatized room. After 7 days, the activity control is carried out for inhibition of ovi position. An activity of 100% means that none of the ticks has deposited eggs.

In turn, `CCSc1c(C(N)=S)nn(-c2c(Cl)cc(C(F)(F)F)cc2Cl)c1N` [Preparation Example 1, 5-amino-4-ethylthio-l-(2,6-dichloro-4-trifluoro-methylphenyl)-3-thiocarbamoyl-pyrazole] displayed a melting point of 101 °C. In data set [1], this molecule registered a kill of 90%. In addition, in the data set on Lucilia cuprina larvae, the inhibition at 100 ppm amounted to 100%. Also, the “activity (kill rate of ticks)” value in data set [2] is 100%. Moreover, the “activity (inhibition of oviposition)” value in data set [3] is 100%.

In general, melting point refers to the temperature of the solid-liquid transition.
